The results in this text go back to patent US9371527B2, “Compositions and methods related to protein displacement therapy for myotonic distrophy” (University of Rochester, priority 2006, dated 2016).

Data set [1] relates to SERCA1 alternative splicing. Kind of data set: RT-PCR of SERCA1 alternative splicing after CAG25 morpholino. The data set is classed as in vivo, HSA^LR transgenic mice. Particulars: 3 weeks following CAG25 injection, tibialis anterior, 4 mice. An excerpt: Morpholino-treated muscle is indicated by “+”. Results from tibialis anterior in the opposite hindlimb, injected with saline alone, are indicated by “−”. The side of morpholino injection was randomly determined, and this assignment remained blinded until after the splicing analysis was completed. Het. dupl. indicates a heteroduplex PCR product.

For data set [2], the system named is ZASP alternative splicing. Kind of data set: RT-PCR of ZASP alternative splicing after CAG25 morpholino. The class given is in vivo, HSA^LR transgenic mice. To be noted: 3 weeks following CAG25 injection, tibialis anterior. An excerpt:
Morpholino-treated muscle is indicated by “+”. Results from tibialis anterior in the opposite hindlimb, injected with saline alone, are indicated by “−”. The side of morpholino injection was randomly determined, and this assignment remained blinded until after the splicing analysis was completed.

Data set [3] concerns HSA^LR transgenic mice. Kind of data set: Electromyography of myotonia after CAG25 morpholino. The class given is in vivo. To be noted: p<0.001. An excerpt:
FIG. 17 uses Electromyography to show the improvement of myotonia at 3 and 6 weeks after injection of CAG25 morpholino into tibialis anterior of HSA^LR transgenic mice. Myotonia is a state of muscle hyperexcitability in which muscle fibers display repetitive action potentials. Myotonia in the HSA^LR transgenic mouse model of myotonic dystrophy is caused by abnormal regulation of alternative splicing for ClC-1 and subsequent reduction of chloride ion channels in muscle fibers. A parallel abnormality of ClC-1 alternative splicing exists in human myotonic dystrophy. […] For each mouse, CAG25 morpholino dissolved in saline was injected into tibialis anterior muscle of one hindlimb, whereas saline alone was injected into tibialis anterior on the opposite side. The side of morpholino injection was randomly assigned. Electromyography was performed by a blinded examiner Severity of myotonia was graded on a 4 point scale: 0=no myotonic, 1=occasional myotonic discharge (fewer than 25% of needle insertions), 2=abundant myotonic discharges (25-75% of needle insertions), and 3=florid myotonia (myotonic discharges in nearly every needle insertion).

For data set [4], the system named is ClC-1 chloride channel. The experiment in a line: ClC-1 immunofluorescence after CAG25 morpholino. The data set is classed as in vivo, HSA^LR transgenic mice. Particulars: 3 weeks following injection. The source says:
Immunofluorescence for ClC-1 chloride channel is shown in sections of tibialis anterior muscle from HSA^LR transgenic mice. Muscle fibers show mosaic expression of ClC-1 in HSA^LR muscle injected with saline. Some of these fibers are completely lacking in ClC-1 protein.

The test system of data set [5] is recombinant MBNL1 protein with (CUG)109 RNA. The experiment in a line: Gel shift assay of MBNL1 with (CUG)109 RNA in presence of CAG25 morpholino. The data set is classed as binding, human. Particulars: increasing amounts of CAG25 morpholino. The source says:
Interaction of recombinant MBNL1 protein with (CUG)109 RNA was examined by gel shift assay, in the presence of increasing amounts of CAG25 morpholino.
Also disclosed herein are methods involving the interaction of soluble, fluorescently-labeled MBNL1 protein with poly(CUG)^109 tethered at the surface of a microtiter plate. Different commercial microtiter plates for capacity to bind in vitro transcribed poly(CUG)^109 and background activity (non-specific binding of labeled MBNL1). For tethering poly(CUG)^109 to plates, a “capture” oligodeoxynucleotide (ODN) complementary to the A-rich 3′ terminus of the poly(CUG)^109 transcript, labeled either with biotin or a reactive group at the 5′ end for attachment to the plate (shown in FIG. 3C in the case of biotin) was used. […] Next, the concentration of capture ODN that saturates binding sites (12.5 pmoles/100 μl/well) and the concentration of poly(CUG)^109 that saturates the capture ODN (of 5 pmole added per well, 0.5 pmole was bound to capture ODN) were determined. Additionally, conditions for fluorescence labeling of MBNL1 protein via conjugation between primary amines on protein and fluorescein-EX dyes (Molecular Probes) were determined. The detection threshold and range of linearity was determined for labeled protein in gels and microplates (FIG. 2B). […]
For orientation: Mobility shift assays separate free from complexed probe on a gel.

Data set [6] deals with ClC-1 exon 7a alternative splicing. Kind of data set: RT-PCR of ClC-1 alternative splicing after CAG25 morpholino. The data set is classed as in vivo, HSA^LR transgenic mice. Particulars: tibialis anterior, vs saline contralateral. An excerpt:
Adult wild-type (WT) mice show low levels of exon 7a inclusion. In HSA^LR transgenic mice, the fraction of ClC-1 splice products that include exon 7a is increased. Inclusion of exon 7a causes a frame shift and creates a premature termination codon that truncates most of the ClC-1 coding sequence. Of note, transcripts that include exon 7a have accelerated degradation via nonsense mediated decay, therefore they are underrepresented at steady state and on this gel. The higher bands on the gel are other alternative splice products, as shown (Mankodi et al, Molecular Cell 10:35-44, 2002.) In HSA^LR transgenic mice, injection of CAG morpholino into tibialis anterior improved the defect of ClC-1 alternative splicing. Morpholino-treated muscle is indicated by “+”. Results from tibialis anterior in the opposite hindlimb, injected with saline alone, are indicated by “−”.

The subject of data set [7] is MBNL1 protein in ribonuclear foci. The experiment in a line: MBNL1 immunofluorescence after CAG25 morpholino injection into tibialis anterior. To be noted: intramuscular injection + electroporation, vs saline contralateral. The data set is classed as in vivo, HSA^LR transgenic mice. As to the method:
The morpholino was compromised entirely of CAG repeats and was 25 nucleotides in length (CAG25). CAG25 morpholino dissolved in phosphate buffered saline was injected into tibialis anterior muscle of HSA^LR transgenic mice, followed by electroporation to facilitate entry into muscle cells. The contralateral tibialis anterior muscle was injected with saline alone, followed by electroporation. The distribution of MBNL1 in tibialis anterior was determined by immunofluorescence with anti-MBNL1 antibody A2764. In muscle injected with saline, MBNL1 was sequestered in ribonuclear foci (nuclei are counterstained with DAPI).

Data set [8] deals with interaction of (CUG)109 RNA with MBNL1 protein. Kind of data set: Non-denaturing gel: PNA-CAG displacement of MBNL1 from (CUG)109 RNA. The class given is binding. Particulars: PNA 4-0.25 μM, then MBNL1 200 nM 30 min. As to the method:
(§1) FIGS. 30A and 30B show protein displacement therapy with peptide nucleic acid (PNA) oligomers composed of CAG repeats.
(§2) Previously it was shown that expanded CUG repeat RNA forms stable hairpin structures (Tian B, et al. RNA 2000; 6:79-87). […] This transcript was incubated 30 min with different concentrations (8, 4, 2, 1, 0.5, 0.25 μM) of PNAs containing different length of CAG repeat sequence (PNA-CAG-6, Nterm-CAGCAG; PNA-CAG-9, Nterm-CAGCAGCAG; PNA-CAG-12, Nterm-CAGCAGCAGCAG (SEQ ID NO: 14); or PNA-CAG-15, Nterm-CAGCAGCAGCAGCAG) (SEQ ID NO: 15). FIG. 30B provides a variation including 5 PNA concentrations (4, 2, 1, 0.5, 0.25 μM) and after additional 30 min incubation step with recombinant MBNL1 (200 nM). Lane “C” in each panel is a control showing migration of fluorescein-labeled (CUG)109 transcript without PNA or MBNL1. Rapid migration of this transcript is caused by hairpin formation. […] Lanes “C+” in panel “B” show controls that contain (CUG)109 transcript and MBNL1 protein without PNA. These lanes show diffuse smear of (CUG)109 transcript, due to formation of heterogenous high molecular weight RNA-protein complexes. Addition of PNA displaces the MBNL1 protein from expanded CUG repeat RNA, disrupting these complexes and reconstituting a sharp band of (CUG)109 transcript. […]

For data set [9], the system named is (CUG)109 hairpins. Kind of data set: Non-denaturing gel: PNA-CAG interaction with fluorescein-labeled (CUG)109 transcript. The class given is binding. To be noted: (CUG)109 10 nM, PNA 8-0.25 μM, 30 min. As to the method:
as §1, §2

Data set [10] has as its target T1, interaction of recombinant MBNL1 protein with (CUG)109 RNA (Homo sapiens, UniProt Q9NR56).
T1 construct: GST (with Prescission protease cleavage site) (N); made in house; host or cells: E. coli BL21(DE3)
The experiment in a line: Filter binding screening assay for inhibitors of MBNL1-(CUG)109 RNA interaction. Particulars: compound+(CUG)109 RNA 5 minutes, then recombinant MBNL1 15 minutes, among 9 aminoglycoside compounds tested. As to the method: The order of addition was compound+(CUG)109 RNA (incubate 5 minutes), followed by recombinant MBNL1 protein (15 minute incubation), followed by application to filter.
Next, optimal conditions were defined (ionic-strength, monovalent cations, Mg^++ and other additions, temperature) for MBNL1-poly(CUG)^109 binding in solution. All forms of recombinant MBNL1 that were tested (GST fused or cleaved, full-length or truncation of C terminal hydrophobic region, 41 or 42 kD isoform) bind to poly(CUG)^109 at low protein concentration (FIG. 3, Kd values ˜10 nM), as determined by nitrocellulose filter binding assays. In this assay, nonspecific binding of labeled RNA to nitrocellulose was very low (<0.2% of maximal positive signal). As described below, disclosed herein are methods comprising a non-radioactive microtiter plate filter binding assay similar to the one used to examine binding activities of different forms of recombinant MBNL1 in FIG. 3.
The two components of this assay, fluorescence-labeled poly(CUG)^109 (FIG. 2B) and recombinant MBNL1 (FIG. 2A), have been developed and optimal conditions for MBNL1 binding to poly(CUG)^exp have been defined (50 mM Tris pH 8.0, 50 mM NaCl, 50 mM KCl, 1 mM Mg^++, 0.1 mM DTT) (see Preliminary Studies). Pilot binding assays have been carried out using nitrocellulose filters (FIG. 3A). […]

In data set [11] the target is T2, interaction of CUG repeat RNA with recombinant MBNL1 protein (Homo sapiens, UniProt Q9NR56).
T2 construct: GST (with Prescission protease cleavage site) (N); made in house; host or cells: E. coli BL21(DE3)
Kind of data set: Fluorescence anisotropy assay for inhibitors of CUG repeat RNA-MBNL1 interaction. The class given is binding. Particulars: (CUG)36 transcript 2 nM, aminoglycoside 10 or 50 μM, MBNL1 100 nM. How it is done:
Fluorescein-labeled (CUG)36 transcript (2 nM) was incubated first with aminoglycoside compound (10 or 50 μM) and then with excess amount of recombinant MBNL1 protein (100 nM). To calculate the fraction of CUG repeat RNA that remains bound to MBNL1 protein (“% bound CUG^exp”, vertical axis), results are expressed as the percentage of maximal fluorescence anisotropy in assays from which aminoglycosides were omitted. […] Values are the average +/−SD from three measurements.
Fluorescein-labeled (CUG)36 RNA (2 nM) was incubated with MBNL1 protein (100 nM) and anisotropy was measured at time points ranging from 1 to 90 minutes. Increasing values for fluorescence anisotropy indicate interaction of fluorescein-labeled (CUG)36 transcript with MBNL1 protein.
MBNL1 protein is known to bind CUG repeat RNAs that form a stable secondary structure (hairpin structure). Aminoglycoside antibiotics were examined to determine whether these compounds can inhibit the interaction of MBNL1 protein with CUG repeat RNA. Aminoglycosides were selected because they are known to bind structured RNA. […] To calculate the fraction of CUG repeat RNA that remains bound to MBNL1 protein (“% bound CUG^exp”, vertical axis), results are expressed as the percentage of maximal fluorescence anisotropy in assays from which aminoglycosides were omitted. […]
In general terms: In fluorescence polarisation assays a small probe gives low polarisation when free and higher when bound to something large.

T1 sequence (Q9NR56 1-382 isoform Q9NR56-5): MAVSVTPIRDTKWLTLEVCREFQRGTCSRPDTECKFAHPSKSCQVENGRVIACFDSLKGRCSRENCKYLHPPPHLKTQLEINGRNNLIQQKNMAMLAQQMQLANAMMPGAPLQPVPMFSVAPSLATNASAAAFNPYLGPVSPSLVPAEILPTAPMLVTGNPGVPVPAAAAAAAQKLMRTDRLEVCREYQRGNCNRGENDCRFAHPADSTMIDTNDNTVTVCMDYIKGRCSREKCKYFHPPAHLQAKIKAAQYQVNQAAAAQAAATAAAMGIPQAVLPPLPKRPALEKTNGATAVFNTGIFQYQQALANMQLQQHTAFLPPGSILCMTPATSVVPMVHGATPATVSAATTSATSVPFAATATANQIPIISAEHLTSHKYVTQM
T2 sequence (Q9NR56 1-382 isoform Q9NR56-5): as above

Consider “CAG25 morpholino: morpholino comprised entirely of CAG repeats, 25 nucleotides in length (antisense AGCAGCAGCAGCAGCAGCAGCAGCA; all phosphorodiamidate morpholino (PMO))”, for which the SERCA1 alternative splicing result in [1] is “improved the defect of SERCA1 alternative splicing”. For the same substance, the ZASP alternative splicing result in data set [2] is “improved regulation of alternative splicing for ZASP”. Moreover, the “myotonia severity (EMG)” value in data set [3] (3 weeks after injection) and in data set [3] (6 weeks after injection) was “significant reduction of myotonia” each time. Also, the “expression of ClC-1 chloride channel at the surface membrane” value in data set [4] is recorded as “increased expression ClC-1 protein at the surface membrane”. For the same substance, in data set [5], the “inhibition of interaction of MBNL1-poly(CUG)^exp RNA in vitro” value is on record as “inhibits the interaction”. Also, the “ClC-1 alternative splicing (exon 7a)” value in data set [6] is given as “improved the alternative splicing of ClC-1”. Besides, the “distribution of MBNL1 in tibialis anterior nuclei” value in data set [7] is “more widely distributed throughout the nucleus”.
With “PNA-CAG-12: peptide nucleic acid Nterm-CAGCAGCAGCAG (all peptide nucleic acid (PNA))”, the “inhibition of interaction of (CUG)109 RNA with MBNL1 protein” value in data set [8] was “inhibit the interaction of (CUG)109 RNA with MBNL1 protein”. Further, the “interaction with expanded CUG repeat hairpin structures (gel migration of (CUG)109 transcript)” value in data set [9] was “can invade (CUG)109 hairpins”.
The like results for “PNA-CAG-15: peptide nucleic acid Nterm-CAGCAGCAGCAGCAG (all peptide nucleic acid (PNA))” were, in that order, “inhibit the interaction of (CUG)109 RNA with MBNL1 protein” and “can invade (CUG)109 hairpins”.
Take gentamicin: the “activity to inhibit formation of MBNL1-poly(CUG)^exp RNA-protein complexes” value in [10] was “highest activity”.
With neomycin, in [10], the “activity to inhibit formation of MBNL1-poly(CUG)^exp RNA-protein complexes” value was “highest activity”. For the same substance, the “inhibition of MBNL1 binding to CUG repeat RNA (% bound CUG^exp)” value in data set [11] is “strongest inhibition”.
